Test results reported in EP3042903B1, “Substituted hetero-bicyclic compounds, compositions and medicinal applications thereof” (Impetis Biosciences Ltd., priority 2015, dated 2016).

Columns and labels:
[1] = target: T1, Recombinant Human Bruton's tyrosine kinase (Btk) (Homo sapiens, UniProt Q06187); assay: Recombinant Human Bruton's tyrosine kinase (Btk) inhibition assay (HTRF KinEASE-TK); assay type: biochemical; settings: 20 ng/ml rhBtk, 77 µM ATP (KM), 1 µM TK-Biotin Substrate, 90 minutes; read-out: IC50 (nM) in recombinant hBTK assay
T1 construct: Full length human BTK (hBTK, Genbank#NM_000061.2) was cloned into pFastBac-HTB vector; 6XHis (N); made in house; host or cells: Sf9 cells (Bac-to-Bac baculovirus expression system)
T1 sequence (Q06187 whole entry): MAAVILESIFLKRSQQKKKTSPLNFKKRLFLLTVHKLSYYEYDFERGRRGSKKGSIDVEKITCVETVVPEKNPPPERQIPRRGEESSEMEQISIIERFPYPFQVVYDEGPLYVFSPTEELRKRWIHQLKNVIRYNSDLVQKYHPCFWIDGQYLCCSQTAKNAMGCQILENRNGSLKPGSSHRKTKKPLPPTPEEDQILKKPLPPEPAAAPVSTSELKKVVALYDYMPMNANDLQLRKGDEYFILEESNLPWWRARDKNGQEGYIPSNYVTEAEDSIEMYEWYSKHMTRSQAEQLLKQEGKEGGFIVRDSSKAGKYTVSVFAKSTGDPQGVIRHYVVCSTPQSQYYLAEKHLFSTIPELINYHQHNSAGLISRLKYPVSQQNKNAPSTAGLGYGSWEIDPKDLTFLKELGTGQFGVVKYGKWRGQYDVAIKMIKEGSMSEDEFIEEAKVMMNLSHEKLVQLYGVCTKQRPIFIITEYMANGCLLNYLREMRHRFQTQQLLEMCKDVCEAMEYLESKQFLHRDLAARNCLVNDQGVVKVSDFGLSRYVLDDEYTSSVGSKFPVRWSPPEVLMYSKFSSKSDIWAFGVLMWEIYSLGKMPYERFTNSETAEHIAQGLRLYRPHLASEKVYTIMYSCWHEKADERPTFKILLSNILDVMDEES
Method: Recombinant Human Bruton's tyrosine kinase (Btk) inhibition assay.
Full length human BTK (hBTK, Genbank#NM_000061.2) was cloned into pFastBac-HTB vector (Invitrogen, cat#10359-016). hBTK gene was expressed with N'-terminal 6XHis tag in Sf9 cells using Bac-to-Bac ^(R) Baculovirus expression system (Invitrogen, cat#10359-016) and the recombinant protein was purified by Ni-NTA method. The elution buffer for hBTK consisted of 50 mM Hepes pH 8.0, 300 mM NaCl, 10% glycerol, 1 mM dithiothreitol and 200 mM imidazole.
The inhibition assays were performed using the generic tyrosine kinase assay kit from Cis Bio (HTRF® KinEASE - TK™ # 62TK0PEB). The assay is based on the principle of fluorescence resonance energy transfer (FRET) between the Europium Cryptate labeled anti-phosphotyrosine antibody and streptavidin labeled fluorophore, XL-665. In an uninhibited kinase reaction the biotinylated peptide substrate (Tk-Biotin) gets phosphorylated at an intermediate tyrosine site which is captured by anti-phosphotyrosine antibody which eventually acts as a FRET donor. The streptavidin labeled XL-665 binds strongly to the Tk-Biotin substrate and act as a FRET acceptor. The resultant FRET signal is measured at 665 nm. A ratio of this specific fluorescence (665nm) to the background fluorescence (620nm), conferred by the free antibody, is directly proportional to the kinase activity.
The Btk inhibition assays were performed using 20 ng/ml of rhBtk in a final volume of 10µl reaction buffer containing 77 µM ATP and 1 µM TK-Biotin Substrate in 50 mM HEPES pH 7.0, 5mM MgCl2, 1mM DTT, 0.01% Tween 20 and 50nM SEB®; with a range of concentrations of the inhibitors. The kinase reaction was carried out at the KM of ATP (77 µM) as well as that of Tk-Biotin substrate (1 µM). After 90 minutes, the reaction was stopped by addition of SA-XL665 at a concentration of 62.5 nM in HTRF® detection buffer containing EDTA. Finally 5 µL of TK antibody-cryptate was added to the reaction and the plate was incubated for additional 60 minutes. The fluorescence was read using the FlexStation (Molecular Devices) with excitation at 340 nm and emissions at 620nm (for Cryptate) and 665nm (for FRET). A ratio of the 2 emissions was calculated for each well and expressed as follows: Specific signal = Ratio(Sample)−Ratio(Negative) [formula] Ratio = (665nm/620nm) × 10^4 [formula] Mean Ratio = ∑Ratio/3(triplicates) [formula]
For each data point, % inhibition is calculated based on uninhibited reaction which is considered as 100% activity over no enzyme or substrate controls. Dose response data is then fit using a four parameter logistic equation using GraphPad Prism 5 software to determine inhibition constant 50(IC50).

[2] = tested on: B cell activation as measured by CD69 expression in mouse splenocytes; assay: Inhibition of B cell activation as measured by CD69 expression in mouse splenocytes (flow cytometry); assay type: cell-based; settings: C57/BL6 splenocytes, 3 µg/mL goat anti-mouse IgM, 18-20 hours, CD69 +ve cells within CD19; read-out: IC50 (nM) in B cell activation assay in Mouse spleenocytes
Excerpt: Inhibition of B cell activation as measured by CD69 expression in mouse splenocytes:
To test the effect of BTK inhibitors in suppressing B-cell receptor (BCR) mediated activation of B cells, we developed a flow cytometry based assay to analyze CD69 expression in B cell population among total splenocyte from the mouse. C57/BL6 mouse spleens were dissected out and splenocytes were isolated by mincing the tissue with a syringe plunger followed by RBC lysis (0.85% ammonium chloride, (Qualigens,Cat #21405) and several washes in PBS. Finally, cell were cultured in culture medium [RPMI medium (Sigma, Cat R6504) with 10% FBS (Gibco - Cat #10270).
Test compounds were diluted half log starting from 2 mM in 100% DMSO (Sigma, cat#D2650) (200X). 1x10^5 splenocytes were incubated with 1 µL of diluted test compounds in 200 µL culture medium in a U-bottom 96 well plate (Greiner) at 37°C with 5% CO2 for 30 minutes. Control wells received 1 µL of 100% DMSO without any compound. The cells were stimulated with 3 µg/mL goat anti-mouse IgM (Sigma, cat#M8644) and incubated for 18-20 hours. After the stimulation, cells were washed in cold PBS with 1% FBS and stained with 1:100 dilution of anti-CD69-PE (eBioscience, cat#12-0691-83) and anti-CD19-PE.Cy5 (eBioscience, cat#15-0193-83) for 1 hour on ice. Then the cells were washed 3 times with PBS with 1% FBS and analyzed by Guava Easycyte Mini flow cytometer system (Millipore). Flow cytometry data were analyzed using Weasel software (WEHI, Melbourne). B cells were gated using CD19 marker. Expression of CD69 was analyzed as percentage of CD69 +ve cells within CD19. Percent activity for each data point was calculated using following formula: [formula]
(§1) Percentage activity was fit using sigmoid dose response with variable slope logistic equation in GraphPad Prism 5 software to determine IC50.

[3] = tested on: B cell activation as measured by CD69 expression in Human whole blood; assay: Inhibition of B cell activation as measured by CD69 expression in Human whole blood (flow cytometry); assay type: cell-based; settings: heparinized human whole blood, anti-IgD antibody 30 µg/mL, 4 hours, CD69 positive cells among CD20 B cells
Method: Inhibition of B cell activation as measured by CD69 expression in Human whole blood
To test the effect of BTK inhibitors in suppressing B-cell receptor (BCR) mediated activation of B cells, we developed a flow cytometry based assay to analyze CD69 expression in B cell population in human whole blood. Freshly collected heparinized human whole blood (60 µL/well) was dispensed in 96-well U bottom plate (Greiner), treated with the test compound at a concentrations ranging from 10 µM to 0.3 nM (half log dilutions). 0.5% DMSO (Sigma, cat#D2650) was used as vehicle control. The whole blood was incubated with compounds for 1 hour, followed by stimulation with anti-IgD antibody (Goat Anti-Human IgD Antibody - affinity purified, Bethyl laboratories, cat#A80-106A) at a final concentration of 30 µg/mL at 37°C and 5% CO2 for 4 hours. Subsequently, 45 µL blood was transferred to 1.5 ml microcentrifuge tubes and 1.2 µL of anti-CD20-PE.Cy5 (BD Biosciences, cat#561761)and 1.6 µL of anti-CD69-PE (eBioscience, cat#12-0691-83) antibody were added and mixed properly by gently tapping the tubes. Blood was stained for 20 minutes at room temperature (RT). After antibody incubation, 1 mL pre-warmed 1X Lyse/Fix solution (BD Biosciences, cat#558049) was added and cells were incubated at RT for 10 minutes. Then the tubes were centrifuged at 450xg for 5 minutes at RT and supernatant was removed. Pellet was disrupted by gentle tapping, cells were washed with 1 mL freshly prepared wash buffer and centrifuged at 450xg for 5 minutes at RT. Supernatant was removed completely before resuspending cells in 200 µl of wash buffer and proceeded for acquisition in Guava Easy Cyte Mini instrument. Acquisition was done with following laser settings: FSC Gain: X 16, FSC fine gain 100%, SSC: 893V, GRN: 663V, YLW: 649V, RED: 802V, Threshold Parameters Offset: FSC 0.73 V Threshold 300 units. The cells were diluted in such a way so that cell conc. should not exceed 500 cells/µL and at least 5000 cells were acquired. Viable lymphocytes were gated from the forward and side scatter profile of cells and B cells were sub-gated based on CD20-PE.Cy5 staining. Percent of CD69-PE positive cells were calculated among B lymphocyte sub-gate using Weasel software. Percent activity for each data point was calculated using following formula: [formula]
as §1

Row | SMILES | IC50 [1] [nM] | IC50 [2] [nM] | IC50 [3] [nM]
1 | O=C1c2c(F)cc(C3CC3)cc2OCCN1c1cc(F)cc(-c2ccnc3[nH]c(-c4ccc(OC5CCN(C6COC6)CC5)cn4)cc23)c1CO [Example 11, 8-cyclopropyl-6-fluoro-4-[5-fluoro-2-(hydroxymethyl)-3-[2-[5-[[1-(oxetan-3-yl)-4-piperidyl]oxy]-2-pyridyl]-1H-pyrrolo[2,3-b]pyridin-4-yl]phenyl]-2,3-dihydro-1,4-benzoxazepin-5-one] | 1.15 |  | 
2 | O=C1c2c(F)cc(C3CC3)cc2OCCN1c1cc(F)cc(-c2ccnc3[nH]c(-c4ccc(CN5CCN(C6COC6)CC5)cn4)cc23)c1CO [Example 1, 8-cyclopropyl-6-fluoro-4-[5-fluoro-2-(hydroxymethyl)-3-[2-[5-[[4-(oxetan-3-yl)piperazin-1-yl]methyl]-2-pyridyl]-1H-pyrrolo[2,3-b]pyridin-4-yl]phenyl]-2,3-dihydro-1,4-benzoxazepin-5-one] |  | 2.7 | 16.5
3 | O=C1c2ccc(C3CC3)cc2OCCN1c1cc(F)cc(-c2ccnc3[nH]c(C4=CCN(C5COC5)CC4)cc23)c1CO [Example 9, 8-cyclopropyl-4-[5-fluoro-2-(hydroxymethyl)-3-[2-[1-(oxetan-3-yl)-3,6-dihydro-2H-pyridin-4-yl]-1H-pyrrolo[2,3-b]pyridin-4-yl]phenyl]-2,3-dihydro-1,4-benzoxazepin-5-one] | 2.5 | 47 | 
4 | O=C1c2c(F)cc(C3CC3)cc2OCCN1c1cc(F)cc(-c2ccnc3[nH]c(C4=CCN(C5COC5)CC4)cc23)c1CO [Example 8, 8-cyclopropyl-6-fluoro-4-[5-fluoro-2-(hydroxymethyl)-3-[2-[1-(oxetan-3-yl)-3,6-dihydro-2H-pyridin-4-yl]-1H-pyrrolo[2,3-b]pyridin-4-yl]phenyl]-2,3-dihydro-1,4-benzoxazepin-5-one] | 1.3 | 9 | 124
5 | O=C1c2c(F)cc(C3CC3)cc2OCCN1c1cc(F)cc(-c2ccnc3[nH]c(-c4ccc(CN5CCN(CC(F)(F)F)CC5)cn4)cc23)c1CO [Example 2] | 1.9 | 2.7 | 55.9
6 | C[C@@H]1CN(Cc2ccc(-c3cc4c(-c5cc(F)cc(N6CCOc7cc(C8CC8)cc(F)c7C6=O)c5CO)ccnc4[nH]3)nc2)CCN1CC(F)F [Example 7, 8-cyclopropyl-4-[3-[2-[5-[[(3R)-4-(2,2-difluoroethyl)-3-methyl-piperazin-1-yl]methyl]-2-pyridyl]-1H-pyrrolo[2,3-b]pyridin-4-yl]-5-fluoro-2-(hydroxymethyl)phenyl]-6-fluoro-2,3-dihydro-1,4-benzoxazepin-5-one] | 1.8 |  | 
7 | O=C1c2c(F)cc(C3CC3)cc2OCCN1c1cc(F)cc(-c2ccnc3[nH]c(-c4ccc(CN5CCOCC5)cn4)cc23)c1CO [Example 4, 8-cyclopropyl-6-fluoro-4-[5-fluoro-2-(hydroxymethyl)-3-[2-[5-(morpholinomethyl)-2-pyridyl]-1H-pyrrolo[2,3-b]pyridin-4-yl]phenyl]-2,3-dihydro-1,4-benzoxazepin-5-one] | 0.55 |  | 
8 | C[C@H]1CN(CC(F)F)CCN1Cc1ccc(-c2cc3c(-c4cc(F)cc(N5CCOc6cc(C7CC7)cc(F)c6C5=O)c4CO)ccnc3[nH]2)nc1 [Example 6, 8-cyclopropyl-4-[3-[2-[5-[[(2S)-4-(2,2-difluoroethyl)-2-methyl-piperazin-1-yl]methyl]-2-pyridyl]-1H-pyrrolo[2,3-b]pyridin-4-yl]-5-fluoro-2-(hydroxymethyl)phenyl]-6-fluoro-2,3-dihydro-1,4-benzoxazepin-5-one] | 2.7 |  | 
9 | CC(C)(O)CN1CC=C(c2cc3c(-c4cc(F)cc(N5CCOc6cc(C7CC7)ccc6C5=O)c4CO)ccnc3[nH]2)CC1 [Example 10, 8-cyclopropyl-4-[5-fluoro-2-(hydroxymethyl)-3-[2-[1-(2-hydroxy-2-methyl-propyl)-3,6-dihydro-2H-pyridin-4-yl]-1H-pyrrolo[2,3-b]pyridin-4-yl]phenyl]-2,3-dihydro-1,4-benzoxazepin-5-one] | 4 | 27 | 
10 | C[C@H]1CN(Cc2ccc(-c3cc4c(-c5cc(F)cc(N6CCOc7cc(C8CC8)cc(F)c7C6=O)c5CO)ccnc4[nH]3)nc2)CCN1CC(F)F [Example 5, 8-cyclopropyl-4-[3-[2-[5-[[(3S)-4-(2,2-difluoroethyl)-3-methyl-piperazin-1-yl]methyl]-2-pyridyl]-1H-pyrrolo[2,3-b]pyridin-4-yl]-5-fluoro-2-(hydroxymethyl)phenyl]-6-fluoro-2,3-dihydro-1,4-benzoxazepin-5-one] | 3 |  | 
